From patent US10738056B2 (Aduro BioTech, Inc., priority 2017, dated 2020)
Read-outs that look alike come from different tables or passages of the source.

Key:
[1] = biological target: Human cGAS amino acids 155-522 (Homo sapiens (Human), UniProt Q8N884); assay: cGAS biochemical activity assay (ATP remaining, Kinase-Glo Max luminescence)
[2] = test system: cGAS/STING pathway in THP1 cells; assay: THP1 cell-based cGAS/STING pathway activity assay (IRF-3-linked luciferase reporter); details: Homo sapiens, THP-1
In short: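 THP1 cells carrying an IRF-3-driven luciferase reporter were read across a range of compound concentrations, and IC50 values were derived from these concentration responses; the assay upper limit was 100 μM.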

[3] = human cGAS 155-522, ATP remaining (Kinase-Glo Max), read-out: cGAS IC50

Human cGAS amino acids 155-522, sequence (Q8N884 157-522): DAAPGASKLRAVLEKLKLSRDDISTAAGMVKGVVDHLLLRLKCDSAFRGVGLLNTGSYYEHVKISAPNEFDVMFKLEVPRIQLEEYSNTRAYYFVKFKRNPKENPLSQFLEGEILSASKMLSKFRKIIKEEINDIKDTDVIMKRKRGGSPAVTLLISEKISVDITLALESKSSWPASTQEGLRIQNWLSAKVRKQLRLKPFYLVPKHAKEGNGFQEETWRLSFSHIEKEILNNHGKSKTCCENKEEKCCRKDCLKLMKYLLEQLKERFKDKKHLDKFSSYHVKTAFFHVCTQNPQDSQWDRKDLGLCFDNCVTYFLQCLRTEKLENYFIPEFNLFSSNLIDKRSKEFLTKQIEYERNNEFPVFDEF

**Q.** For `CCc1cccc2oc(-c3c(C)[nH]c4c(-c5ccccc5)c(C(F)(F)F)nn4c3=O)nc12` [Compound C1046, 6-(4-ethylbenzo[d]oxazol-2-yl)-5-methyl-3-phenyl-2-(trifluoromethyl)pyrazolo[1,5-a]pyrimidin-7(4H)-one], which IC50 [1, 3] is on record?
**A.** < 20 µM

**Q.** And the IC50 [2]?
**A.** < 20 µM

**Q.** Which IC50 [1, 3] does the source give for `COc1ccccc1S(=O)(=O)NC(=O)c1c(C)[nH]c2c(-c3ccccc3)c(C(F)(F)F)nn2c1=O` [Compound A1121, N-((2-methoxyphenyl)sulfonyl)-5-methyl-7-oxo-3-phenyl-2-(trifluoromethyl)-4,7-dihydropyrazolo[1,5-a]pyrimidine-6-carboxamide] here?
**A.** < 20 µM

**Q.** And the IC50 [2]?
**A.** > 100 µM

**Q.** Which IC50 [1, 3] does the source give for `Cc1[nH]c2c(-c3ccccc3)c(C(F)(F)F)nn2c(=O)c1-c1nc2ccccc2[nH]1` [Compound C1005, 6-(1H-benzo[d]imidazol-2-yl)-5-methyl-3-phenyl-2-(trifluoromethyl)pyrazolo[1,5-a]pyrimidin-7(4H)-one] here?
**A.** 20 to 250 µM

**Q.** And the IC50 [2]?
**A.** > 100 µM

**Q.** With `Cc1[nH]c2c(-c3ccccc3)c(C(F)(F)F)nn2c(=O)c1-c1nnc(C2CCOCC2)o1` [Compound D1016, 5-methyl-3-phenyl-6-(5-(tetrahydro-2H-pyran-4-yl)-1,3,4-oxadiazol-2-yl)-2-(trifluoromethyl)pyrazolo[1,5-a]pyrimidin-7(4H)-one] as the compound, how does the IC50 [1, 3] read?
**A.** < 20 µM

**Q.** And the IC50 [2]?
**A.** > 100 µM

**Q.** What does the source list for `Cc1[nH]c2c(-c3ccccc3)c(C(F)(F)F)nn2c(=O)c1C(=O)NS(=O)(=O)Cc1ccccc1` [Compound A1112, N-(benzylsulfonyl)-5-methyl-7-oxo-3-phenyl-2-(trifluoromethyl)-4,7-dihydropyrazolo[1,5-a]pyrimidine-6-carboxamide]?
**A.** IC50 [1, 3]: < 20 µM; IC50 [2]: 20 to 100 µM

**Q.** What does the source list for `Cc1[nH]c2c(-c3ccccc3)c(C(F)(F)F)nn2c(=O)c1-c1nnc(N2CCCC2)o1` [Compound D1014, 5-methyl-3-phenyl-6-(5-(pyrrolidin-1-yl)-1,3,4-oxadiazol-2-yl)-2-(trifluoromethyl)pyrazolo[1,5-a]pyrimidin-7(4H)-one]?
**A.** IC50 [1, 3]: < 20 µM; IC50 [2]: > 100 µM

**Q.** Which IC50 [1, 3] does the source give for `COc1cc([N+](C)(C)C)cc2oc(-c3c(C)[nH]c4c(-c5ccccc5)c(C(F)(F)F)nn4c3=O)nc12` [Compound C1163, 4-methoxy-N,N,N-trimethyl-2-(5-methyl-7-oxo-3-phenyl-2-(trifluoromethyl)-4,7-dihydropyrazolo[1,5-a]pyrimidin-6-yl)benzo[d]oxazol-6-aminium] here?
**A.** < 20 µM

**Q.** And the IC50 [2]?
**A.** > 100 µM

**Q.** Which results are given for `Cc1[nH]c2c(-c3ccccc3)c(C(F)(F)F)nn2c(=O)c1C(=O)NS(=O)(=O)c1ccccc1Cl` [Compound A1127, N-((2-chlorophenyl)sulfonyl)-5-methyl-7-oxo-3-phenyl-2-(trifluoromethyl)-4,7-dihydropyrazolo[1,5-a]pyrimidine-6-carboxamide]?
**A.** IC50 [1, 3]: < 20 µM; IC50 [2]: 20 to 100 µM

**Q.** Which IC50 [1, 3] does the source give for `Cc1[nH]c2c(-c3ccccc3)c(C(F)(F)F)nn2c(=O)c1-c1nc2c(o1)CCCC2=O` [Compound C1033, 2-(5-methyl-7-oxo-3-phenyl-2-(trifluoromethyl)-4,7-dihydropyrazolo[1,5-a]pyrimidin-6-yl)-6,7-dihydrobenzo[d]oxazol-4(5H)-one] here?
**A.** < 20 µM

**Q.** And the IC50 [2]?
**A.** > 100 µM

**Q.** What does the source list for `COc1cccc2oc(-c3c(COCCO)[nH]c4c(-c5ccccc5)c(C#N)nn4c3=O)nc12` [Compound C1248, 5-((2-hydroxyethoxy)methyl)-6-(4-methoxybenzo[d]oxazol-2-yl)-7-oxo-3-phenyl-4,7-dihydropyrazolo[1,5-a]pyrimidine-2-carbonitrile]?
**A.** IC50 [1, 3]: < 20 µM; IC50 [2]: > 100 µM

**Q.** With `CC(=O)NCCOc1cccc2oc(-c3c(C)[nH]c4c(-c5ccccc5)c(C(F)(F)F)nn4c3=O)nc12` [Compound C1062, N-(2-((2-(5-methyl-7-oxo-3-phenyl-2-(trifluoromethyl)-4,7-dihydropyrazolo[1,5-a]pyrimidin-6-yl)benzo[d]oxazol-4-yl)oxy)ethyl)acetamide] as the compound, how does the IC50 [1, 3] read?
**A.** < 20 µM

**Q.** What about the IC50 [2] of the same compound?
**A.** > 100 µM

**Q.** What does the source list for `COc1cccc2oc(-c3c(-c4cnn(C)c4)[nH]c4c(-c5ccccc5)c(C(F)(F)F)nn4c3=O)nc12` [Compound C1255, 6-(4-methoxybenzo[d]oxazol-2-yl)-5-(1-methyl-1H-pyrazol-4-yl)-3-phenyl-2-(trifluoromethyl)pyrazolo[1,5-a]pyrimidin-7(4H)-one]?
**A.** IC50 [1, 3]: < 20 µM; IC50 [2]: > 100 µM

**Q.** With `Cc1[nH]c2c(-c3ccccc3)c(C(F)(F)F)nn2c(=O)c1-c1nnc(N2CCCCC2)o1` [Compound D1020, 5-methyl-3-phenyl-6-(5-(piperidin-1-yl)-1,3,4-oxadiazol-2-yl)-2-(trifluoromethyl)pyrazolo[1,5-a]pyrimidin-7(4H)-one] as the compound, how does the IC50 [1, 3] read?
**A.** < 20 µM

**Q.** What about the IC50 [2] of the same compound?
**A.** > 100 µM

**Q.** For `Cc1nn2c(=O)c(-c3nnc(C4CCCOC4)o3)c(C)[nH]c2c1-c1ccccc1` (stereo not drawn) [Compound D1030, 2,5-dimethyl-3-phenyl-6-(5-(tetrahydro-2H-pyran-3-yl)-1,3,4-oxadiazol-2-yl)pyrazolo[1,5-a]pyrimidin-7(4H)-one], which IC50 [1, 3] is on record?
**A.** < 20 µM

**Q.** What about the IC50 [2] of the same compound?
**A.** > 100 µM

**Q.** What does the source list for `Cc1[nH]c2c(-c3ccccc3)c(C(F)(F)F)nn2c(=O)c1C(=O)Nc1cccc2c1OCCC2` [Compound A1107, N-(chroman-8-yl)-5-methyl-7-oxo-3-phenyl-2-(trifluoromethyl)-4,7-dihydropyrazolo[1,5-a]pyrimidine-6-carboxamide]?
**A.** IC50 [1, 3]: < 20 µM; IC50 [2]: < 20 µM

**Q.** Which results are given for `COc1cccc(NC(=O)c2c(C)[nH]c3c(-c4ccccc4)c(C(F)(F)F)nn3c2=O)c1F` [Compound A1136, N-(2-fluoro-3-methoxyphenyl)-5-methyl-7-oxo-3-phenyl-2-(trifluoromethyl)-4,7-dihydropyrazolo[1,5-a]pyrimidine-6-carboxamide]?
**A.** IC50 [1, 3]: < 20 µM; IC50 [2]: 20 to 100 µM

**Q.** With `COc1cccc2oc(-c3c(C(=O)NCC(=O)O)[nH]c4c(-c5ccccc5)c(C(F)(F)F)nn4c3=O)nc12` [Compound C1195, (6-(4-methoxybenzo[d]oxazol-2-yl)-7-oxo-3-phenyl-2-(trifluoromethyl)-4,7-dihydropyrazolo[1,5-a]pyrimidine-5-carbonyl)glycine] as the compound, how does the IC50 [1, 3] read?
**A.** < 20 µM

**Q.** What about the IC50 [2] of the same compound?
**A.** > 100 µM

**Q.** With `COc1cccc2oc(-c3c(C4=CCC(C(=O)O)CC4)[nH]c4c(-c5ccccc5)c(C(F)(F)F)nn4c3=O)nc12` (stereo not drawn) [Compound C1234, 4-(6-(4-methoxybenzo[d]oxazol-2-yl)-7-oxo-3-phenyl-2-(trifluoromethyl)-4,7-dihydropyrazolo[1,5-a]pyrimidin-5-yl)cyclohex-3-ene-1-carboxylic acid] as the compound, how does the IC50 [1, 3] read?
**A.** < 20 µM

**Q.** What about the IC50 [2] of the same compound?
**A.** > 100 µM

**Q.** What does the source list for `Cc1[nH]c2c(-c3ccccc3)c(C(F)(F)F)nn2c(=O)c1C(=O)NS(=O)(=O)C1CCCCC1` [Compound A1124, N-(cyclohexylsulfonyl)-5-methyl-7-oxo-3-phenyl-2-(trifluoromethyl)-4,7-dihydropyrazolo[1,5-a]pyrimidine-6-carboxamide]?
**A.** IC50 [1, 3]: < 20 µM; IC50 [2]: > 100 µM

**Q.** Which results are given for `Cc1[nH]c2c(-c3ccccc3)c(C(F)(F)F)nn2c(=O)c1-c1nnc([C@@H]2CCCOC2)o1` [Compound D1026, (R)-5-methyl-3-phenyl-6-(5-(tetrahydro-2H-pyran-3-yl)-1,3,4-oxadiazol-2-yl)-2-(trifluoromethyl)pyrazolo[1,5-a]pyrimidin-7(4H)-one]?
**A.** IC50 [1, 3]: < 20 µM; IC50 [2]: > 100 µM

**Q.** Which results are given for `COc1cccc2oc(-c3c(C(=O)NCc4cc[nH]n4)[nH]c4c(-c5ccccc5)c(C(F)(F)F)nn4c3=O)nc12` [Compound C1245, N-((1H-pyrazol-3-yl)methyl)-6-(4-methoxybenzo[d]oxazol-2-yl)-7-oxo-3-phenyl-2-(trifluoromethyl)-4,7-dihydropyrazolo[1,5-a]pyrimidine-5-carboxamide]?
**A.** IC50 [1, 3]: < 20 µM; IC50 [2]: > 100 µM

**Q.** `COc1cccc2nc(-c3c(C)[nH]c4c(-c5ccccc5)c(C(F)(F)F)nn4c3=O)[nH]c(=O)c12` [Compound C1024, 5-methoxy-2-(5-methyl-7-oxo-3-phenyl-2-(trifluoromethyl)-4,7-dihydropyrazolo[1,5-a]pyrimidin-6-yl)quinazolin-4(3H)-one] was tested. Which IC50 [1, 3] did it give?
**A.** < 20 µM

**Q.** What about the IC50 [2] of the same compound?
**A.** 20 to 100 µM

**Q.** Which results are given for `Cc1[nH]c2c(-c3ccccc3)c(C(F)(F)F)nn2c(=O)c1-c1nc2c(=O)n(C)ccc2o1` [Compound C1106, 5-methyl-2-(5-methyl-7-oxo-3-phenyl-2-(trifluoromethyl)-4,7-dihydropyrazolo[1,5-a]pyrimidin-6-yl)oxazolo[4,5-c]pyridin-4(5H)-one]?
**A.** IC50 [1, 3]: < 20 µM; IC50 [2]: 20 to 100 µM

**Q.** Which IC50 [1, 3] does the source give for `CCCS(=O)(=O)NC(=O)c1c(C)[nH]c2c(-c3ccccc3)c(C(F)(F)F)nn2c1=O` [Compound A1111, 5-methyl-7-oxo-3-phenyl-N-(propylsulfonyl)-2-(trifluoromethyl)-4,7-dihydropyrazolo[1,5-a]pyrimidine-6-carboxamide] here?
**A.** < 20 µM

**Q.** What about the IC50 [2] of the same compound?
**A.** > 100 µM

**Q.** What does the source list for `Cc1[nH]c2c(-c3ccccc3)c(C(F)(F)F)nn2c(=O)c1-c1nc2c(OC(=O)N(C)C)cccc2o1` [Compound C1088, 2-(5-methyl-7-oxo-3-phenyl-2-(trifluoromethyl)-4,7-dihydropyrazolo[1,5-a]pyrimidin-6-yl)benzo[d]oxazol-4-yl dimethylcarbamate]?
**A.** IC50 ([1]; cGAS IC50, human cGAS 155-522, ATP remaining (Kinase-Glo Max)): < 20 µM; IC50 [2]: 20 to 100 µM

**Q.** What does the source list for `Cc1[nH]c2c(-c3ccccc3)c(C(F)(F)F)nn2c(=O)c1-c1nnc(C2=NCCCN2)o1` [Compound D1072, 5-methyl-3-phenyl-6-(5-(1,4,5,6-tetrahydropyrimidin-2-yl)-1,3,4-oxadiazol-2-yl)-2-(trifluoromethyl)pyrazolo[1,5-a]pyrimidin-7(4H)-one]?
**A.** IC50 [1, 3]: < 20 µM; IC50 [2]: > 100 µM

**Q.** How did the IC50 [1, 3] turn out when `Cc1[nH]c2c(-c3ccccc3)c(C(F)(F)F)nn2c(=O)c1-c1nc2c(o1)CCCC2O` (stereo not drawn) [Compound C1052, 6-(4-hydroxy-4,5,6,7-tetrahydrobenzo[d]oxazol-2-yl)-5-methyl-3-phenyl-2-(trifluoromethyl)pyrazolo[1,5-a]pyrimidin-7(4H)-one] was run?
**A.** < 20 µM

**Q.** What about the IC50 [2] of the same compound?
**A.** 20 to 100 µM
